Test results taken from US9260417B2, “Therapeutic methods and compositions involving allosteric kinase inhibition” (AMITECH THERAPEUTIC SOLUTIONS, INC., priority 2010, dated 2016).

Legend:
[1] = system: bFGF induced angiogenesis; assay: Mouse Matrigel model of angiogenesis; format: in vivo, mice; settings: 50 mg/kg, ip, bid
Experimental: On day 5 after implantation of the Matrigel, the mice were administered FITC-lectin to label blood vessels. The plugs were removed and visualized by confocal microscopy followed by homogenization and quantification of total FITC. Error bars represent ±SEM. […] Thin sections (5 μm) of the Matrigel plugs were immunostained for vessels with an EC mix (anti-Flk, anti-CD31, anti-VE-Cadherin, and anti-endoglin). […] (FIG. 9C) 6 inhibits phosphorylation of PDGFRβY751 in stromal cells. Thin sections (5 μm) of the Matrigel plugs were immunostained for pericytes and fibroblast with α-smooth muscle actin and for phospho-PDGFRβ Y751 levels. ECs were immunostained with anti-CD31. […] Thin sections (5 μm) of the Matrigel plugs were immunostained for vessels with an EC mix (described as in 9B). TOPRO-3 was used as a nuclear counterstain and TUNEL staining was used to detect apoptotic nuclei. Images were taken using confocal laser scanning microscopy. […]
Female Nu/Nu mice were implanted with growth-factor depleted Matrigel (BD Biosciences, San Jose, Calif.) in the flank containing either PBS or 200 ng of bFGF (Peprotech). […] Five days after matrigel implantation, mice were tail-vein injected with FITC-lectin and plugs were harvested and imaged by confocal microscopy and quantified after homogenization in ice-cold PBS using a fluorescent microplate reader (Tecan Systems, Inc., San Jose, Calif.). […]

SN12C-RFP renal cells = assay: Orthotopic renal cell carcinoma model; format: in vivo, mice; settings: 100 mg/kg, po, qd; day 26 (vehicle 132±39 mg)
Excerpt: (FIG. 10A) Real-time fluorescent imaging of SN12C-RFP renal cells orthotopically injected into […] of nu/nu mice. […] Drug treatments were started 7 days after orthotopic injection and tumor growth was visualized every 7 days by whole animal imaging. The images shown are of 4 mice in the vehicle and drug treated groups on day 26. Scale bar=10 mm. (FIG. 10B) At the end of the study, both the left tumor bearing kidney and right kidney were extracted and weighed.
Male Nu/Nu mice were anesthetized with an intraperitoneal injection of 50 mg/kg ketamine and […] medetomidine. A small incision was made along the left flank of the mice and the kidney was exposed. A 27-gauge insulin syringe was used for orthotopic injection of the SN12C-RFP cells. One million tumor cells in 20 μl of a 1:1 PBS:Matrigel mixture were injected into the lower pole of the kidney just below the renal subcapsule. […]
To test the effects of 6 on tumor growth after oral administration, human SN12C renal cells expressing RFP were injected into the kidney capsule of nude mice and tumors were allowed to develop for 7 days. […] Suppression of tumor growth was readily observed in those animals treated with 6 (FIG. 10A). On day 26, the kidneys were excised from these animals and the weight due to tumor was calculated by subtracting the weight of the normal kidney from the weight of the tumor-bearing kidney for each animal.

CSc1nc(N)cc(Oc2ccc(-c3nnc(Nc4cccc(C(F)(F)F)c4)[nH]3)cc2)n1 [Compound 6]
p-ERK staining in endothelial cells of Matrigel plugs [1]: suppression in the p-ERK staining | p-PDGFRβY751 signal in stromal compartment of Matrigel plugs [1]: complete suppression | average tumor burden (tumor-bearing kidney minus normal kidney weight) (SN12C-RFP renal cells): 49 ± 18 mg
